Data taken from patent publication US20180171411A1, “GFRalpha1 AS A BIOMARKER FOR CISPLATIN-INDUCED CHEMORESISTANCE AND METASTASIS” (THE BOARD OF REGENTS OF THE UNIVERSITY OF TEXAS SYSTEM, priority 2015, published 2018).

Test system: LC3 puncta in MG-63 cells
Test: LC3 puncta formation (mRFP-GFP-LC3 reporter)
Type: cell-based, human
Settings: for LC3 puncta formation: cisplatin 20 μM, 24 hr
Protocol: FIG. 3. GFRα1-induced autophagy enhances the chemoresistance of osteosarcoma cells induced by cisplatin. (a) Control and GFRα1-deficient MG-63 cells were transiently transfected with a mRFP-GFP tandem fluorescent-tagged LC3 (mRFP-GFP-LC3) vector and then treated with cisplatin (20μM) for 24 hr. Left, representative images of RFP-LC3 and GFP-LC3 puncta. Scale bar, 20 μm. Right, quantitative analysis of the number of yellow puncta and the number of RFP-LC3 puncta in the combined images. The values are represented as a mean±s.d.m. (n=3). ** denotes p<0.05 by t-test. (b) Control and GFRα1-deficient MG-63 cells were treated with cisplatin (20 μM) for 24 hr and then stained with acridine orange. Top, representative images of cells stained with acridine orange. Scale bar, 20 μm. Bottom, quantitative analysis of the number of AVOs. The values are represented as a mean±s.d.m. (n=3). ** denotes p<0.05 by t-test. (c) Control and GFRα1-deficient MG-63 cells were treated with cisplatin (20 μM) for 24 hr and then analyzed by TEM. Top, representative images of autophagic vacuoles (yellow arrows) detected after cisplatin treatment in control MG-63 cells. Scale bar, 100 nm. Bottom, quantitative analysis of the number of autophagic vacuoles. The values are represented as a mean±s.d.m. (n=3). ** denotes p<0.05 by t-test. (d) Immunoblot analysis of control and GFRα1-overexpressing osteosarcoma cell lysates with antibodies specific for GFRα1, LC3 and β-actin. GFRα1-overexpressing MG-63 cells were treated with DMSO, 3-MA (10 μM) or Baf (100 nM). (e) Quantitative analysis of the number of yellow puncta and the number of RFP-LC3 puncta in control and GFRα1-overexpressing MG-63 cells. Control and GFRα1-overexpressing MG-63 cells were transiently transfected with an RFP-GFP tandem fluorescent-tagged LC3 (mRFP-GFP-LC3) and then treated with cisplatin (20 μM) for 24 hr. […] (g) Control and GFRα1-overexpressing MG-63 cells were treated with cisplatin (20 μM) for 24 hr and then stained with acridine orange. Top, representative images of cells stained with acridine orange. Scale bar, 20 μm. Bottom, quantitative analysis of the number of AVOs. The values are represented as a mean±s.d.m. (n=3). ** denotes p<0.05 by t-test. (h) Control and GFRα1-overexpressing MG-63 cells were treated with cisplatin (20 μM) for 24 hr and then analyzed by TEM. Top, representative images of autophagic vacuoles detected after cisplatin treatment in control and GFRα1-overexpressing MG-63 cells. Scale bar, 100 nm. Bottom, quantitative analysis of the number of autophagic vacuoles. The values are represented as a mean±s.d.m. (n=3). ** denotes p<0.05 by t-test. (i) Cell viability of GFRα1-overexpressing osteosarcoma cells after cisplatin treatment in the presence of autophagy inhibitors. Control or GFRα1-overexpressing MG-63 cells were cultured with DMSO, 3-MA or Baf, and then treated with cisplatin (20 μM) for 24 hr. Cell viability was measured using the WST-1 assay. The values are represented as a mean±s.d.m. (n=3). ** denotes p<0.05 by t-test. (j) Cell viability of GFRα1-overexpressing osteosarcoma cells after cisplatin treatment in the presence of Beclin 1 (20 nM) or HMGB1 (20 nM) […] siRNA. Control or GFRα1-overexpressing MG-63 cells were cultured with Beclin 1 or HMGB1 siRNA for 48 hr and then treated with cisplatin (20 μM) for 24 hr. Cell viability was measured using the WST-1 assay. The values are represented as a mean±s.d.m. (n=3). ** denotes p<0.05 by t-test. (k) The effect of GFRα1 deficiency or overexpression on colony formation in the presence of cisplatin (20 μM). Equal number (1×10^4 cells) of control (control shRNA), GFRα1-deficient (GFRα1 shRNA), control (empty vector), and GFRα1-overexpressing (GFRα1 expressing vector) MG-63 cells were plated. All of cell lines were incubated with cisplatin (20 μM) for 10 days. Colonies were stained by crystal violet for visualization. Left, representative images of colony formation. Right, quantitative analysis of the number of colonies and plating efficiency. […]

With `Cn1cnc(N)c2ncnc1-2` [3-MA, 3-methyladenine] the cisplatin-induced puncta formation (MG-63 cells pretreated with 3-MA (10 mM) 2 hr, cisplatin 20 μM 24 hr) was “blocked” and the puncta formation (control and GFRα1-overexpressing cells, 3-MA pretreatment 2 hr) was “blocked”.

`N.N.[Cl][Pt][Cl]` [cisplatin, Cis-Diamineplatinum(II) dichloride] was tested, and the LC3 puncta formation (GFRα1-deficient MG-63 cells) was “no change” and the LC3 puncta formation (MG-63 cells transfected with control shRNA) was “significantly increased”.

B1: GDNF: glial cell line-derived neurotrophic factor, the major ligand of GFRα1 (protein, UniProt P39905 78-211, looked up)
Glial cell line-derived …: SPDKQMAVLPRRERNRQAAAANPENSRGKGRRGQRGKNRGCVLTAIHLNVTDLGLGYETKEELIFRYCSGSCDAAETTYDKILKNLSRNRRLVSDKVGQACCRPIAFDDDLSFLDDNLVYHILRKHSAKRCGCI
With B1 the “GFRα1-mediated autophagy after cisplatin treatment” value (control and GFRα1-overexpressing MG-63 cells, GDNF) was “did not have an effect” and the “LC3 puncta formation on addition of GDNF” value (control or GFRα1-overexpressing cells, GDNF 24 h) was “no significant effect”.
